Test results taken from US12692261B2, “Substituted heterocyclic compounds and therapeutic uses thereof” (Bayer Aktiengesellschaft, priority 2020, dated 2026).

Columns and labels:
[1] = biological target: T1, full-length human CSNK1A1 (Homo sapiens, UniProt P48729); experiment: CSNK1A1 High ATP Assay (ADP-Glo, 1 mM ATP); format: biochemical; details: Table 3, read-out: CSNK1A1 high ATP assay IC50 [mol/l] (median);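 also: 30 min kinase reaction at 22 °C with 100 µM peptide substrate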
T1 construct: N-terminal Glutathion-S-Transferase (GST) and full-length human CSNK1A1; purchased Life Technologies PV4174; host or cells: baculovirus infected insect cells
T1 sequence (P48729 whole entry): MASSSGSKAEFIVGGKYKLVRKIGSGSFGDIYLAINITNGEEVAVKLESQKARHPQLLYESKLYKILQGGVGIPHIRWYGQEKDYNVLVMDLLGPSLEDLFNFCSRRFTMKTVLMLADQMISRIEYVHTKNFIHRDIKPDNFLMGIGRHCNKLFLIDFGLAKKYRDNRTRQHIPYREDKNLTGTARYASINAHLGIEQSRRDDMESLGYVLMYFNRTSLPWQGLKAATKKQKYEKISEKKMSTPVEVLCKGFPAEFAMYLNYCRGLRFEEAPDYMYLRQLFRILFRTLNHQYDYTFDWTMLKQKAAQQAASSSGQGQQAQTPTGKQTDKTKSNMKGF
Outline: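 GST-tagged full-length human CSNK1A1 from baculovirus-infected insect cells (typically about 0.4 ng/μL), pre-incubated with compound 15 min at 22 °C. Reaction with biotinylated peptide biotin-Ahx-KRRRAL-pS-VASLPGL at 1 mM ATP. ADP formed read by ADP-Glo luminescence.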

full-length human CSNK1D = biological target: T2, full-length human CSNK1D (Homo sapiens, UniProt P48730); experiment: CSNK1D Assay (ADP-Glo, 1 μM ATP); format: biochemical; details: Table 3, read-out: CSNK1D IC50 [mol/l] (median)
T2 construct: N-terminal Glutathion-S-Transferase (GST) and full-length human CSNK1D; purchased Life Technologies PV3665; host or cells: baculovirus infected insect cells
T2 sequence (P48730 whole entry): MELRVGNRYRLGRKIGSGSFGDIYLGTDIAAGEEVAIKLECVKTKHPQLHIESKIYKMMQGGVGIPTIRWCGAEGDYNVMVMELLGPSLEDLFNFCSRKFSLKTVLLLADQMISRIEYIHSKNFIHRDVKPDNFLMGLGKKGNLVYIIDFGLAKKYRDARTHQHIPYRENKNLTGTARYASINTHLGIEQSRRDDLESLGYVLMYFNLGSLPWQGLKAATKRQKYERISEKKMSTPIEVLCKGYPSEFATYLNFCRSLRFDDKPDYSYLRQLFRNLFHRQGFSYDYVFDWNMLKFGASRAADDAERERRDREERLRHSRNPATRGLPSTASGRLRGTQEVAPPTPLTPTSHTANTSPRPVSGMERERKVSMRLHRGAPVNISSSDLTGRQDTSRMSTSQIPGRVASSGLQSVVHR
Procedure: CSNK1D-inhibitory activity of compounds of the present invention in presence of 1 μM adenosine-tri-phosphate (ATP) was quantified employing the CSNK1 D assay as described in the following paragraphs. In essence, the enzyme activity is measured by quantification of the adenosine-di-phosphate (ADP), which is generated as a co-product of the enzyme reaction, via the “ADP-Glo™ Kinase Assay” kit from the company Promega. This detection system works as follows: In a first step the ATP not consumed in the kinase reaction is quantitatively converted to cAMP employing an adenylate cyclase (“ADP-Glo-reagent”), then the adenylate cyclase is stopped and the ADP generated in the kinase reaction converted to ATP which generates in a luciferase-based reaction a glow-luminescence signal (“Kinase Detection Reagent”).
Recombinant fusion protein of N-terminal Glutathion-S-Transferase (GST) and full-length human CSNK1D, expressed by baculovirus infected insect cells and purified via Glutathion affinity chromatography, was purchased from Life Technologies (product no. PV3665) and used as enzyme. As substrate for the kinase reaction the biotinylated peptide Btn-Ahx-[…] (C-terminus in amide form) was used which can be purchased e.g. from the company Biosyntan (Berlin-Buch, Germany).
For the assay 50 nl of a 100 fold concentrated solution of the test compound in DMSO was pipetted into a white 1536-well microtiter plate (Greiner Bio-One, Frickenhausen, Germany), 2 μL of a solution of CSNK1D in aqueous assay buffer [50 mM HEPES pH 7.5, 10% (v/v) glycerol, 10 mM MgCl2, 50 mM NaCl, 1 mM dithiothreitol, 0.01% (w/v) bovine serum albumin, 0.01% (v/v) Triton X-100] were added and the mixture was incubated for 15 min at 22° C. to allow pre-binding of the test compounds to the enzyme before the start of the kinase reaction. […] The concentration of CSNK1D was adjusted depending of the activity of the enzyme lot and was chosen appropriate to have the assay in the linear range, a typical concentration is about 0.5 ng/μL. The reaction was stopped by the addition of 2.5 μL of “ADP-Glo-reagent” (1:1.5 fold diluted with water) and the resulting mixture was incubated at 22° C. for 1 h to convert the ATP not consumed in the kinase reaction completely […]. Subsequently 2.5 μL of the “kinase detection reagent” (1.2 fold more concentrated than recommended by the producer) were added, the resulting mixture was incubated at 22° C. for 1 h and then the luminescence measured with a suitable measurement instrument (e.g. Viewlux™ from Perkin-Elmer). The amount of emitted light was taken as a measure for the amount of ADP generated and thereby for the activity of the CSNK1D.

| Compound | IC50 [1] [nM] | IC50 (full-length human CSNK1D) [nM] |
| --- | --- | --- |
| O=C(Nc1cc(-c2[nH]c3c(OCC4CC4)ncnc3c2-c2ccccn2)ccn1)C(CC(F)F)c1ccc(F)cc1 (racemic) [Example 128, (2RS)—N-{4-[4-(cyclopropylmethoxy)-7-(pyridin-2-yl)-5H-pyrrolo[3,2-d]pyrimidin-6-yl]pyridin-2-yl}-4,4-difluoro-2-(4-fluorophenyl)butanamide] | 47.4 | 8.51 |
| COc1cnc2c(-c3ccccn3)c(-c3ccnc(NC(=O)C(CC(F)F)c4ccc(F)cc4)c3)[nH]c2n1 (single isomer, unassigned) [Example 102, 4,4-difluoro-2-(4-fluorophenyl)-N-{4-[3-methoxy-7-(pyridin-2-yl)-5H-pyrrolo[2,3-b]pyrazin-6-yl]pyridin-2-yl}butanamide] | 31.1 | 75 |
| Cc1cc(F)nc2c(-c3ccccn3)c(-c3ccnc(NC(=O)C(CC(F)F)c4ccc(F)cc4)c3)[nH]c12 (single isomer, unassigned; (-)) [Example 38, (−)-4,4-difluoro-N-{4-[5-fluoro-7-methyl-3-(pyridin-2-yl)-1H-pyrrolo[3,2-b]pyridin-2-yl]pyridin-2-yl}-2-(4-fluorophenyl)butanamide] | 2.26 | 3.8 |
| O=C(Nc1cc(-c2[nH]c3ccc(F)nc3c2-c2ccc(F)cn2)ccn1)C(CC(F)F)c1ccc(F)cc1 (single isomer, unassigned; (+)) [Example 109, (+)-4,4-difluoro-N-{4-[5-fluoro-3-(5-fluoropyridin-2-yl)-1H-pyrrolo[3,2-b]pyridin-2-yl]pyridin-2-yl}-2-(4-fluorophenyl)butanamide] | 3.14 | 3.41 |
| O=C(Nc1cc(-c2[nH]c3c(Cl)ccnc3c2-c2ccccn2)ccn1)C(CC(F)F)c1ccc(F)cc1 (racemic) [Example 49, (2RS)—N-{4-[7-chloro-3-(pyridin-2-yl)-1H-pyrrolo[3,2-b]pyridin-2-yl]pyridin-2-yl}-4,4-difluoro-2-(4-fluorophenyl)butanamide] | 3.64 | 7.69 |
| O=C(Nc1cc(-c2[nH]c3cccnc3c2-c2cccc(F)n2)ccn1)C(CC(F)F)c1ccc(F)cc1 (single isomer, unassigned; (+)) [Example 27, (+)-4,4-difluoro-2-(4-fluorophenyl)-N-{4-[3-(6-fluoropyridin-2-yl)-1H-pyrrolo[3,2-b]pyridin-2-yl]pyridin-2-yl}butanamide] | 1.55 | 4.05 |
| COc1cnc2c(-c3ccccn3)c(-c3ccnc(NC(=O)C(CC(F)F)c4ccc(F)cc4)c3)[nH]c2n1 (stereo not shown) [Example 101, 4,4-difluoro-2-(4-fluorophenyl)-N-{4-[3-methoxy-7-(pyridin-2-yl)-5H-pyrrolo[2,3-b]pyrazin-6-yl]pyridin-2-yl}butanamide] | 4.82 | 9.17 |
| O=C(Nc1cc(-c2[nH]c3ccc(F)nc3c2-c2cc(F)ccn2)ccn1)C(CC(F)F)c1ccc(F)cc1 (racemic) [Example 95, (2RS)-4,4-difluoro-N-{4-[5-fluoro-3-(4-fluoropyridin-2-yl)-1H-pyrrolo[3,2-b]pyridin-2-yl]pyridin-2-yl}-2-(4-fluorophenyl)butanamide] | 5.62 | 10.5 |
| O=C(Nc1cc(-c2[nH]c3cccnc3c2-c2ncccn2)ccn1)C(CC(F)F)c1ccc(F)cc1 (racemic) [Example 112, (2RS)-4,4-difluoro-2-(4-fluorophenyl)-N-[4-(3-pyrimidin-2-yl-1H-pyrrolo[3,2-b]pyridin-2-yl)-2-pyridyl]butanamide] | 217 | 16.9 |
| O=C(Nc1cc(-c2[nH]c3cccnc3c2-c2ccccn2)ccn1)C(CC(F)F)c1ccc(F)cc1 (racemic) [Example 10, 4,4-difluoro-2-(4-fluorophenyl)-N-{4-[3-(pyridin-2-yl)-1H-pyrrolo[3,2-b]pyridin-2-yl]pyridin-2-yl}butanamide] | 9.88 | 4.99 |
| O=C(Nc1cc(-c2[nH]c3cccnc3c2-c2ccccn2)ccn1)C(CC(F)F)c1ccc(F)cc1 (single isomer, unassigned; (+)) [Example 11, (+)-4,4-difluoro-2-(4-fluorophenyl)-N-{4-[3-(pyridin-2-yl)-1H-pyrrolo[3,2-b]pyridin-2-yl]pyridin-2-yl}butanamide] | 5.35 | 2.57 |
| CC(C)(O)c1cc(F)nc2c(-c3ccccn3)c(-c3ccnc(NC(=O)C(CC(F)F)c4ccc(F)cc4)c3)[nH]c12 (single isomer, unassigned) [Example 99, (2R or S)-4,4-difluoro-N-{4-[5-fluoro-7-(2-hydroxypropan-2-yl)-3-(pyridin-2-yl)-1H-pyrrolo[3,2-b]pyridin-2-yl]pyridin-2-yl}-2-(4-fluorophenyl)butanamide] | 3.55 | 3.36 |
| O=C(Nc1cc(-c2[nH]c3nccnc3c2-c2ccccn2)ccn1)C(CC(F)(F)F)c1ccc(F)cc1 (single isomer, unassigned) [Example 120, (2R or S)-4,4,4-trifluoro-2-(4-fluorophenyl)-N-{4-[7-(pyridin-2-yl)-5H-pyrrolo[2,3-b]pyrazin-6-yl]pyridin-2-yl}butanamide] | 35.8 | 4.35 |
| O=C(Nc1cc(-c2[nH]c3cccnc3c2-c2ccccn2)ccn1)C(CCO)c1ccc(F)cc1 (stereo not shown) [Example 104, 2-(4-fluorophenyl)-4-hydroxy-N-(4-(3-(pyridin-2-yl)-1H-pyrrolo[3,2-b]pyridin-2-yl)pyridin-2-yl)-butanamide] | 6.29 | 16.3 |
| O=C(Nc1cc(-c2[nH]c3nc(OC(F)F)cnc3c2-c2ccccn2)ccn1)C(CC(F)F)c1ccc(F)cc1 (stereo not shown) [Example 105, N-{4-[3-(difluoromethoxy)-7-(pyridin-2-yl)-5H-pyrrolo[2,3-b]pyrazin-6-yl]pyridin-2-yl}-4,4-difluoro-2-(4-fluorophenyl)butanamide] | 10.9 | 12.3 |
| O=C(Nc1cc(-c2[nH]c3cncnc3c2-c2ccccn2)ccn1)C(CC(F)F)c1ccc(F)cc1 (single isomer, unassigned; (-)) [Example 14, (−)-4,4-difluoro-2-(4-fluorophenyl)-N-{4-[7-(pyridin-2-yl)-5H-pyrrolo[3,2-d]pyrimidin-6-yl]pyridin-2-yl}butanamide] | 2140 | 28.5 |
| COc1cnc2c(-c3ccccn3)c(-c3ccnc(NC(=O)C(CC(F)F)c4ccc(F)cc4)c3)[nH]c2n1 (single isomer, unassigned) [Example 103, 4,4-difluoro-2-(4-fluorophenyl)-N-{4-[3-methoxy-7-(pyridin-2-yl)-5H-pyrrolo[2,3-b]pyrazin-6-yl]pyridin-2-yl}butanamide] | 1.97 | 4.3 |
| O=C(Nc1cc(-c2[nH]c3cc(F)cnc3c2-c2ccccc2)ccn1)C(CC(F)F)c1ccc(F)cc1 (single isomer, unassigned; (-)) [Example 20, (−)-4,4-difluoro-2-(4-fluorophenyl)-N-[4-(6-fluoro-3-phenyl-1H-pyrrolo[3,2-b]pyridin-2-yl)pyridin-2-yl]butanamide] | 10100 | 47.8 |
| O=C(Nc1cc(-c2[nH]c3ccc(F)nc3c2-c2cc(F)ccn2)ccn1)C(CC(F)F)c1ccc(F)cc1 (single isomer, unassigned) [Example 97, (2R or S)-4,4-difluoro-N-{4-[5-fluoro-3-(4-fluoropyridin-2-yl)-1H-pyrrolo[3,2-b]pyridin-2-yl]pyridin-2-yl}-2-(4-fluorophenyl)butanamide] | 36 | 67 |
| Cc1cnc2c(-c3ccccn3)c(-c3ccnc(NC(=O)C(CC(F)F)c4ccc(F)cc4)c3)[nH]c2c1 (single isomer, unassigned) [Example 8, 4,4-difluoro-2-(4-fluorophenyl)-N-{4-[6-methyl-3-(pyridin-2-yl)-1H-pyrrolo[3,2-b]pyridin-2-yl]pyridin-2-yl}butanamide] | 8.57 | 4.01 |
